This note sets out measurements from patent US8273774B2, “Phenoxypyridinylamide compounds” (AstraZeneca AB, priority 2008, dated 2012).

recombinant Human Phosphodiesterase B2 (PDE4B2), sequence (Q07343 1-564 isoform Q07343-2): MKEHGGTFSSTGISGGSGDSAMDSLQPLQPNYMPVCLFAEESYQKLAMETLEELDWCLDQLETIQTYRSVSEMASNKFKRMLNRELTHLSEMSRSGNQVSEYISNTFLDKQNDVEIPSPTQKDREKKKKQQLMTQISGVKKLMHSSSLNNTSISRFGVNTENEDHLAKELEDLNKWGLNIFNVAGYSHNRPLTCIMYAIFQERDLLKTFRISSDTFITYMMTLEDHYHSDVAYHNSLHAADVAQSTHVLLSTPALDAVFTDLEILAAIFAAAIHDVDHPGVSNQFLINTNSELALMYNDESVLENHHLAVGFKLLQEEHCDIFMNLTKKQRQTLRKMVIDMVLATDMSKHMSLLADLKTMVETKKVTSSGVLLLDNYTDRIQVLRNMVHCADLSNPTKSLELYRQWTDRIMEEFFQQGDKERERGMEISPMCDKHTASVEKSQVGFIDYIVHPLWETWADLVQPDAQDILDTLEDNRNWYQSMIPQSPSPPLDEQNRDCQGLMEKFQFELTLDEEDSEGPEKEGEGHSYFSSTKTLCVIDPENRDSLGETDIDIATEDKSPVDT

The target of the test is recombinant Human Phosphodiesterase B2 (PDE4B2) (Homo sapiens, UniProt Q07343). In words: Human Phosphodiesterase B2 Radiometric Assay. The format is biochemical. The following applies: 0.1 μg/mL recombinant PDE4B2; preincubated at 30 C for 30 min; [3H]cyclic AMP 8 nM, stopped after 20 min; yttrium silicate SPA beads; read-out: PDE4B2 pIC50 (converted). Put shortly:
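SPA read-out: product 5′AMP binds yttrium silicate beads (added with 18 mM ZnSO4 after 20 min) in preference to [3H]cAMP substrate, given at 8 nM final.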
Turning to `Cc1csc(C(=O)N[C@H]2CC[C@@H](NC(=O)c3cc(F)cnc3Oc3cccc(-c4ccc(CN5C[C@@H](C)N[C@@H](C)C5)cc4CN4CCSCC4)c3)CC2)n1` [Example 192, N-((1s,4s)-4-(2-(4′-(((3S,5R)-3,5-dimethylpiperazin-1-yl)methyl)-2′-(thiomorpholinomethyl)biphenyl-3-yloxy)-5-fluoronicotinamido)cyclohexyl)-4-methylthiazole-2-carboxamide], the IC50 is 0.02 nM. Next, `Cc1ccc(O)c(C(=O)N[C@H]2CC[C@@H](NC(=O)c3cc(F)cnc3Oc3cccc(-c4ccc(O)cc4CN4CCOCC4)c3)CC2)c1` [Example 28, 5-fluoro-2-(4′-hydroxy-2′-(morpholinomethyl)biphenyl-3-yloxy)-N-((1s,4s)-4-(2-hydroxy-5-methylbenzamido)cyclohexyl)nicotinamide]: 0.0251 nM; `Cc1nc(C(=O)N[C@H]2CC[C@@H](NC(=O)c3cc(F)cnc3Oc3cccc(-c4ccc(CCCNCCCO)cc4)c3)CC2)cs1` [Example 136, N-((1s,4s)-4-(5-fluoro-2-(4′-(3-(3-hydroxypropylamino)propyl)biphenyl-3-yloxy)nicotinamido)cyclohexyl)-2-methylthiazole-4-carboxamide]: 0.1 nM; `Cc1ccc(O)c(C(=O)N[C@H]2CC[C@@H](NC(=O)c3cc(F)cnc3Oc3cccc(-c4ccc(O)cc4CN4CCCOCC4)c3)CC2)c1` [Example 16, 2-(2′-((1,4-oxazepan-4-yl)methyl)-4′-hydroxybiphenyl-3-yloxy)-5-fluoro-N-((1s,4s)-4-(2-hydroxy-5-methylbenzamido)cyclohexyl)nicotinamide]: 0.0316 nM. Consider `C[C@@H]1CN(CCCc2ccc(-c3cccc(Oc4ncc(F)cc4C(=O)N[C@H]4CC[C@@H](NC(=O)c5cc6ncccn6n5)CC4)c3)cc2)C[C@H](C)N1` [Example 143, N-((1s,4s)-4-(2-(4′-(3-((3S,5R)-3,5-dimethylpiperazin-1-yl)propyl)biphenyl-3-yloxy)-5-fluoronicotinamido)cyclohexyl)pyrazolo[1,5-a]pyrimidine-2-carboxamide], for which the IC50 was 0.0794 nM. For the compound `C[C@@H]1CN(CCCc2ccc(-c3cccc(Oc4ncc(F)cc4C(=O)N[C@H]4CC[C@@H](NC(=O)c5cc6n(n5)CCC6)CC4)c3)cc2)C[C@H](C)N1` [Example 140, N-((1s,4s)-4-(2-(4′-(3-((3S,5R)-3,5-dimethylpiperazin-1-yl)propyl)biphenyl-3-yloxy)-5-fluoronicotinamido)cyclohexyl)-5,6-dihydro-4H-pyrrolo[1,2-b]pyrazole-2-carboxamide], the IC50 was 0.0316 nM. The same measure for `C[C@@H]1CN(Cc2ccc(-c3cccc(Oc4ncc(F)cc4C(=O)N[C@H]4CC[C@@H](NC(=O)c5cn6cc(F)ccc6n5)CC4)c3)c(CN3CCOCC3)c2)C[C@H](C)N1` [Example 122, N-((1s,4s)-4-(2-(4′-(((3S,5R)-3,5-dimethylpiperazin-1-yl)methyl)-2′-(morpholinomethyl)biphenyl-3-yloxy)-5-fluoronicotinamido)cyclohexyl)-6-fluoroimidazo[1,2-a]pyridine-2-carboxamide]: 0.0398 nM. Take `C[C@@H]1CN(CCc2ccc(-c3cccc(Oc4ncc(F)cc4C(=O)N[C@H]4CC[C@@H](NC(=O)c5cnc6ccccc6n5)CC4)c3)cc2)C[C@H](C)N1` [Example 99, N-((1s,4s)-4-(2-(4′-(2-((3S,5R)-3,5-dimethylpiperazin-1-yl)ethyl)biphenyl-3-yloxy)-5-fluoronicotinamido)cyclohexyl)quinoxaline-2-carboxamide]: the IC50 was 0.0794 nM. The same measure for `Cc1cc(C(=O)N[C@H]2CC[C@@H](NC(=O)c3cc(F)cnc3Oc3cccc(-c4ccc(CCN5CCC(N6CCCC6)CC5)cc4)c3)CC2)nn1C` [Example 154, N-((1s,4s)-4-(1,5-dimethyl-1H-pyrazole-3-carboxamido)cyclohexyl)-5-fluoro-2-(4′-(2-(4-(pyrrolidin-1-yl)piperidin-1-yl)ethyl)biphenyl-3-yloxy)nicotinamide]: 0.0316 nM; for `Cc1cccc2nc(C(=O)N[C@H]3CC[C@@H](NC(=O)c4cc(F)cnc4Oc4cccc(-c5ccc(C(=O)O)cc5CN5CCOCC5)c4)CC3)cn12` [Example 59, 3′-(5-fluoro-3-((1s,4s)-4-(5-methylimidazo[1,2-a]pyridine-2-carboxamido)cyclohexylcarbamoyl)pyridin-2-yloxy)-2-(morpholinomethyl)biphenyl-4-carboxylic acid]: 0.0794 nM; for `O=C(N[C@H]1CC[C@@H](NC(=O)c2cc(F)cnc2Oc2cccc(-c3ccc(CN4CCNCC4)cc3)c2)CC1)c1cn2c(n1)CCCC2` [Example 1, N-((1s,4s)-4-(5-fluoro-2-(4′-(piperazin-1-ylmethyl)biphenyl-3-yloxy)nicotinamido)cyclohexyl)-5,6,7,8-tetrahydroimidazo[1,2-a]pyridine-2-carboxamide]: 0.126 nM.

Consider `Cc1cc(C)n2ncc(C(=O)N[C@H]3CC[C@@H](NC(=O)c4cc(F)cnc4Oc4cccc(-c5ccc(CN6C[C@@H](C)N[C@@H](C)C6)cc5CN5CCOC[C@@H]5C)c4)CC3)c2n1` [Example 196, N-((1s,4s)-4-(2-(4′-(((3S,5R)-3,5-dimethylpiperazin-1-yl)methyl)-2′-(((S)-3-methylmorpholino)methyl)biphenyl-3-yloxy)-5-fluoronicotinamido)cyclohexyl)-5,7-dimethylpyrazolo[1,5-a]pyrimidine-3-carboxamide], for which the IC50 was 0.0251 nM.

For `O=C(N[C@H]1CC[C@@H](NC(=O)c2cc(F)cnc2Oc2cccc(-c3ccc(CN4CCSCC4)cc3CN3CCOCC3)c2)CC1)c1csc(CO)n1` [Example 170, N-((1s,4s)-4-(5-Fluoro-2-(2′-(morpholinomethyl)-4′-(thiomorpholinomethyl)biphenyl-3-yloxy)nicotinamido)cyclohexyl)-2-(hydroxymethyl)thiazole-4-carboxamide], the IC50 was 0.0501 nM.

Regarding `O=C(N[C@H]1CC[C@@H](NC(=O)c2cc(F)cnc2Oc2cccc(-c3ccc(CCCN4CCNCC4)cc3)c2)CC1)c1cn2c(n1)CCCC2` [Example 137, N-((1s,4s)-4-(5-fluoro-2-(4′-(3-(piperazin-1-yl)propyl)biphenyl-3-yloxy)nicotinamido)cyclohexyl)-5,6,7,8-tetrahydroimidazo[1,2-a]pyridine-2-carboxamide], the IC50 is 0.0501 nM.

With `Cc1cc(C(=O)N[C@H]2CC[C@@H](NC(=O)c3cc(F)cnc3Oc3cccc(-c4ccc(CCCN5CCN(C)CC5)cc4)c3)CC2)nn1C` [Example 80, N-((1s,4s)-4-(1,5-dimethyl-1H-pyrazole-3-carboxamido)cyclohexyl)-5-fluoro-2-(4′-(3-(4-methylpiperazin-1-yl)propyl)biphenyl-3-yloxy)nicotinamide], the IC50 was 0.0398 nM. The same measure for `Cc1cc(C(=O)N[C@H]2CC[C@@H](NC(=O)c3cc(F)cnc3Oc3cccc(-c4cccc(CN5C[C@@H](C)N[C@@H](C)C5)c4)c3)CC2)nn1C` [Example 72, N-((1s,4s)-4-(1,5-dimethyl-1H-pyrazole-3-carboxamido)cyclohexyl)-2-(3′-(((3S,5R)-3,5-dimethylpiperazin-1-yl)methyl)biphenyl-3-yloxy)-5-fluoronicotinamide]: 0.0631 nM; for `Cc1cc(C(=O)N[C@H]2CC[C@@H](NC(=O)c3cc(F)cnc3Oc3cccc(-c4ccc(CCCN5CCNC[C@H]5C)cc4)c3)CC2)nn1C` [Example 142, N-((1s,4s)-4-(1,5-dimethyl-1H-pyrazole-3-carboxamido)cyclohexyl)-5-fluoro-2-(4′-(3-((R)-2-methylpiperazin-1-yl)propyl)biphenyl-3-yloxy)nicotinamide]: 0.0251 nM; for `C[C@@H]1CN(Cc2ccc(-c3cccc(Oc4ncc(F)cc4C(=O)N[C@H]4CC[C@@H](NC(=O)c5cc(C(F)(F)F)n(C)n5)CC4)c3)c(CN3CCSCC3)c2)C[C@H](C)N1` [Example 191, 2-(4′-(((3S,5R)-3,5-dimethylpiperazin-1-yl)methyl)-2′-(thiomorpholinomethyl)biphenyl-3-yloxy)-5-fluoro-N-((1s,4s)-4-(1-methyl-5-(trifluoromethyl)-1H-pyrazole-3-carboxamido)cyclo-hexyl)nicotinamide]: 0.02 nM. The same measure for `Cc1cccc(CN[C@H]2CC[C@@H](NC(=O)c3cc(F)cnc3Oc3cccc(-c4ccc(O)cc4CN4CCOCC4)c3)CC2)n1` [Example 6, 5-fluoro-2-(4′-hydroxy-2′-(morpholinomethyl)biphenyl-3-yloxy)-N-((1s,4s)-4-((6-methylpyridin-2-yl)methylamino)cyclohexyl)nicotinamide]: 3.16 nM. As for `O=C(N[C@H]1CC[C@@H](NC(=O)c2cc(F)cnc2Oc2cccc(-c3ccc(O)cc3CN3CCOCC3)c2)CC1)c1csc(CO)n1` [Example 58, N-((1s,4s)-4-(5-fluoro-2-(4′-hydroxy-2′-(morpholinomethyl)biphenyl-3-yloxy)nicotinamido)cyclohexyl)-2-(hydroxymethyl)thiazole-4-carboxamide], the IC50 is 0.0631 nM.

As to `Cc1cccc2nc(C(=O)N[C@H]3CC[C@@H](NC(=O)c4cc(F)cnc4Oc4cccc(-c5ccc(CN6C[C@@H](C)N[C@@H](C)C6)c(O)c5)c4)CC3)cn12` [Example 96, N-((1s,4s)-4-(2-(4′-(((3S,5R)-3,5-dimethylpiperazin-1-yl)methyl)-3′-hydroxybiphenyl-3-yloxy)-5-fluoronicotinamido)cyclohexyl)-5-methylimidazo[1,2-a]pyridine-2-carboxamide], the IC50 was 0.2 nM. The same measure for `Cc1nc(C(=O)N[C@H]2CC[C@@H](NC(=O)c3cc(F)cnc3Oc3cccc(-c4ccc(CCCN5C[C@@H](C)N[C@@H](C)C5)cc4)c3)CC2)cs1` [Example 75, N-((1s,4s)-4-(2-(4′-(3-((3S,5R)-3,5-dimethylpiperazin-1-yl)propyl)biphenyl-3-yloxy)-5-fluoronicotinamido)cyclohexyl)-2-methylthiazole-4-carboxamide]: 0.0316 nM.
